Source: US5362412A, “Biodegradable bleach stabilizers for detergents” (priority 1991, dated 1994)

How the values were obtained:
[1] = Sodium perborate stabilization in wash liquors (bleaching of grape juice stained swatches); settings: 5.2×10^-5 mol/l stabilizer, sodium perborate-monohydrate 0.8 g/l, 50° C., 15 minutes, pH 10.3; for ΔE (brightness of the swatches): Fe^III, Cu^II, Mn^II; for % Stain Removal: in duplicate
Description: The efficiency of the bleaching action of a laundry detergent containing the stabilizers of the invention was measured by washing white poly-cotton fabric swatches previously stained with grape juice. The test was carried out using the following detergent formulation: […]
Sodium Dodecyl Benzene Sulfonate
Grape juice stained, poly-cotton fabric swatches purchased from Scientific Services, Oakland, N.J., were washed in a Tergitometer at 50° C. for 15 minutes in a wash solution containing sodium perborate-monohydrate 0.8 g/l; 4.0 g/l of the zeolite-based detergent as described above; 100 ppm Hardness (3:1 Ca:Mg); 2 ppm Fe^III; 1 ppm Cu^II; and 1 ppm Mn^II (from AA standards); and 5.2×10^-5 mol/l stabilizer. The pH of the wash solution was 10.3. The swatches were then rinsed for 5 minutes in 25° C. water and air dried.
The efficiency of the bleaching action was determined by measuring the brightness (ΔE) of the swatches and the percentage of soil removed from the swatches.
ΔE was calculated in accordance with ASTM E 308-66(81) standards, using the following formula: [formula] wherein L=Lightness 0 black, 100 white a=Redness if +, Greenness if -, Gray is 0 b=Yellow if +, Blue if -, Gray is 0
Δ measurements are before and after washing
Percent stain removal was calculated in duplicate in accordance with ASTM D3050-75 standards, using the following formula: [formula] where D=reflectance by detergent head with green filter (brightness).

[2] = Perborate stabilization in the presence of Cu ions (peroxide remaining after hot storage, iodine/starch titration); settings: pH 10.1
Description: (§1) The hydrogen peroxide responsible for the bleaching action in sodium perborate based laundry detergents is decomposed catalytically by transition metal ions such as Mn^II and Cu^II. This degradation can be prevented by complexing the metal ions.
(§2) The peroxide stabilizing effect of stabilizers in accordance with the invention was tested by measuring the peroxide present before and after storage in a hot aqueous solution which contains copper or manganese ions.
(§3) A solution of 0.2 g (2×10^-3 mols) sodium perborate monohydrate; 10.0 ml of hardness standard (3:1 CaCl2 :MgCl2, 1×10^-6 mols total); 3.0 ml of metal standard (5.4×10^-8 mol Mn^II or 4.7×10^-8 mols Cu^II); and 2.0 ml stabilizer solution (4.2×10^-7 mols stabilizer) was diluted to 100 ml with distilled water. The pH was adjusted to 10.1 and the solution was stirred at 70° C. for 20 minutes. Ten ml aliquots of the solution were tested after 10 minutes by first neutralizing the solution with sulfuric acid and then titrating with iodine and starch.
(§4) The percentage of peroxide remaining after storage was determined using a starch/iodine titration procedure.

[3] = Perborate stabilization in the presence of Mn ions (peroxide remaining after hot storage, iodine/starch titration); settings: pH 10.1
Description: as §1, §2, §3, §4

[4] = conventional tests; cited from earlier work
[5] = 4.7×10^-8 mols Cu^II, 4.2×10^-7 mols stabilizer in 100 ml, 70° C.
[6] = 5.4×10^-8 mol Mn^II, 4.2×10^-7 mols stabilizer in 100 ml, 70° C.

Row | Stability in Presence of Cu^+2 Ions, % Remaining [2, 5] [%] | Stability in Presence of Mn^2 Ions, % Remaining [3, 6] [%] | Stability in Presence of Cu^+2 Ions, % Remaining [2] [%] | Stability in Presence of Mn^2 Ions, % Remaining [3] [%] | SMILES | ΔE (brightness of the swatches) [1] | % Stain Removal [1] [%] | biodegradability [4]
1 | 79.0 | 13.6 | – | – | O=C(O)CC(NC(CC(=O)O)C(=O)O)C(=O)O (stereo not drawn) [ISA, Iminodisuccinic acid] | 92.7 | 81.4 | –
2 | 50.4 | 45.0 | – | – | O=C(O)CCN(CC(=O)O)CC(=O)O [BADA] | 98.0 | 83.3 | –
3 | 31.3 | 54.5 | – | – | O=C(O)CSC(CC(=O)O)C(=O)O (stereo not drawn) [CMMS, Carboxymethylmercaptosuccinic acid] | 102.3 | 84.5 | –
4 | 28.6 | 25.6 | – | – | O=C(O)CC(C(=O)O)N(CC(=O)O)CC(=O)O (stereo not drawn) [AspDA, Aspartic acidN,N-diacetic acid] | 93.9 | 83.7 | –
5 | – | – | – | – | O=C(O)CN(CC(=O)O)CC(O)CN(CC(=O)O)CC(=O)O [HPDTA, hydroxypropylenediaminetetraacetic acid] | – | – | insufficiently biodegradable
6 | – | – | 0.0 | 21.5 | O=C(O)CNC(CC(=O)O)C(=O)O (stereo not drawn) [AspMA, Aspartic acidN-monoacetic acid] | 87.6 | 84.4 | –
7 | – | – | – | – | CC(CN(CC(=O)O)CC(=O)O)N(CC(=O)O)CC(=O)O (stereo not drawn) [PDTA, propylenediaminetetraacetic acid] | – | – | insufficiently biodegradable

Row | SMILES | Stability in Presence of Cu^+2 Ions, % Remaining [2, 5] [%] | Stability in Presence of Mn^2 Ions, % Remaining [3, 6] [%] | Stability in Presence of Cu^+2 Ions, % Remaining [2] [%] | Stability in Presence of Mn^2 Ions, % Remaining [3] [%] | ΔE (brightness of the swatches) [1] | % Stain Removal [1] [%] | biodegradability [4]
8 | O=C(O)CN(CCN(CC(=O)O)CC(=O)O)CC(=O)O [EDTA, Ethylenediaminetetraacetic acid, reference compound] | 82.8 | 87.5 | – | – | 86.2 | 79.7 | insufficiently biodegradable
